According to patent US20140005271A1, “PHARMACEUTICAL COMPOSITION FOR PREVENTING OR TREATING INFLAMMATORY DISEASES OR INFECTIOUS DISEASES, CONTAINING m-3M3FBS, WHICH IS ACTIVATOR OF PHOSPHOLIPASE C, AS ACTIVE INGREDIENT” (priority 2011, published 2014):

How the values were obtained:
splenocytes of mice = assay: Direct in vitro production of IFN-γ and IL-12 by ELISA; format: cell-based, mouse; settings: various concentrations, 3 hours
[1] = system: cytokines in the peritoneal fluid; assay: CLP-induced cytokines in peritoneal fluid by ELISA; format: in vivo, mouse; settings: 1.5 mg/kg, 4 to 72 hours after CLP
Method: To detect production of CLP-inducing cytokines in peritoneal lavage fluid, m-3M3FBS was treated 2, 14, 26, or 38 hours after CLP. The peritoneal lavage fluid was harvested at various points of time from 4 to 72 hours after the CLP, and expression of cytokines in the peritoneal fluid was detected by ELISA (BD Biosciences Pharmingen).

splenocytes = assay: TUNEL assay of CLP-induced apoptosis; format: in vivo, mouse; settings: 1.5 mg/kg; FIG. 4C
Method: The TUNEL assay was performed on tissue fragments embedded in paraffin, and the fragments were subjected to permeation of Triton X-100 at 4° C. for 2 minutes, and immersed in a TdT enzyme and a digoxigenin-dUTP reaction buffer (TUNEL) reagent for 60 minutes at 37° C. A percentage of apoptotic cells (TUNEL-positive cells) was determined by counting 500 splenocytes, which were observed using an optical microscope.

mouse neutrophils [2] = assay: LPS-induced proinflammatory cytokine secretion in neutrophils by ELISA; format: cell-based; settings: LPS 100 ng/ml, m-3M3FBS 10 μM, versus LPS alone
Method: Mouse neutrophils (3×10^6 cells/0.3 ml) were incubated in a 24-well plate containing 10% FBS-contained RPMI 1640 medium, and placed in 5% CO2 incubator at 37° C. Then, the neutrophils were incubated with LPS (100 ng/ml) for 6 hours in the presence or absence of m-3M3FBS (10 μM). The LPS (100 ng/ml) was treated to the cells after 30 minutes, the cell-free supernatant was harvested by centrifugation, and the production of IL-1 or TNF-α was detected by ELISA (BD Biosciences Pharmingen) according to the manufacturer's instructions.

CLP mouse models = assay: Survival/mortality of CLP (cecal ligation and puncture) sepsis mice; format: in vivo; settings: for effect on the m-3M3FBS-induced survival rate: treated within the period of injecting m-3M3FBS, 1.5 mg/kg, FIG. 1C
Method: (§1) Male WT ICR mice were used as test models. All tests involving animals were performed according to the guidelines, and received the approval of Institutional Review Committee for Animal Care and Use from Dong-a University. For cecal ligation and puncture (CLP), the mice were anesthetized by intraperitoneal injection of pentothal sodium (50 mg/kg), and the cecum was exposed through midline incision of the abdomen. The cecum was ligated at a terminal end of the ileocecal valve, and the surface was perforated twice, or once to measure cytokine production using a 22-gauge needle, and the abdomen was closed. The control (sham) CLP mice underwent the same process as described above, but the cecum was not ligated or punctured.

[3] = system: thymocytes and splenocytes; assay: CLP-induced apoptosis of thymocytes and splenocytes (H&E staining, counting of living cells); format: in vivo, mouse; settings: 1.5 mg/kg; 24 hours; FIGS. 4A and B
Method: as §1

caspase-3 = assay: Immunostaining of fragmented caspase-3 in splenocytes of CLP mice; parameters: species or system mouse; settings: 1.5 mg/kg in vivo; FIG. 4D
Method: Immunostaining was performed on the paraffin-embedded tissue fragments. The fragments were incubated with primary antibodies (Cell Signal transduction) in response to fragmented capase-3, and stained with fluorescent pigment-fused secondary antibodies.

[4] = system: mouse neutrophils with opsonized E. coli; assay: Microbicidal action of neutrophils on ingested opsonized E. coli; format: cell-based
Method: Neutrophils were incubated for 1 hour at a 13-mm plastic cover slip on a 60-mm plastic petri dish (1×10^6 neutrophils/cover slip) at 37° C. Unattached neutrophils were removed by PBS washing, and the attached neutrophils were incubated with 10^6 of opsonized E. coli for 20 minutes. Microbes ingested by neutrophils were incubated for 30 minutes at various concentrations of m-3M3FBS or vehicles, and changes of the microbes before and after incubation were examined. A percentage of dead microbes was calculated by 100×(1−the number of CFU after m-3M3FBS stimulation/the number of CFU before m-3M3FBS stimulation).

[5] = system: bacteria in the peritoneal fluid; assay: In vivo microbicidal action: bacterial colonies (CFU) in peritoneal lavage fluid after CLP; parameters: species or system mouse; settings: 1.5 mg/kg; 24 hours after CLP; FIG. 3A
Method: 24 hours after the CLP, peritoneal lavage fluid was harvested, and was incubated overnight in a blood-agar base plate (Trypticase Soy Agar Deeps, Becton Dickinson) at 37° C. CFUs were estimated by counting bacteria colonies formed in the blood-agar base plate (Trypticase Soy Agar Deeps, Becton Dickinson).

mouse neutrophils [6] = assay: Production of H2O2 in neutrophils; format: cell-based
Method: Neutrophils of mice were isolated from peripheral blood using Histopaque-1077 solvent (Sigma), and neutrophils isolated from a normal mouse were stimulated by treating various concentrations of m-3M3FBS for 10 minutes in the presence of cytochalasin B (5 μm). […] H2O2 obtained from a supernatant was analyzed using H2O2 Molecular Probes.

lung of the CLP mouse = assay: Inflammation of the lung in CLP mice (hematoxylin and eosin staining, W/D weight ratio); format: in vivo; settings: 1.5 mg/kg
Method: The degree of pulmonary edema was identified by measuring a wet-to-dry (W/D) ratio of the lung. The wet weight of the harvested cells was measured, and the cells were placed in an oven at 60° C. for 48 hours, and the dry weight of the cells was measured, thereby obtaining the W/D ratio.
2 hours after the mice underwent CLP, PBS or m-3M3FBS was administered at a concentration of 1.5 mg/kg. 24 hours after the surgery, the mice were euthanized, and the lung was fixed, cut, and stained with hematoxylin and eosin to perform morphological analysis.

## Cc1cc(C)c(S(=O)(=O)Nc2cccc(C(F)(F)F)c2)c(C)c1 [m-3M3FBS]
Splenocytes of mice; FIG. 6D
  production of IFN-γ: increased
Splenocytes of mice; FIG. 6E
  production of IL-12: increased
[1]; FIG. 5A
  level of IL-1β in peritoneal fluid: significantly decreased
[1]; FIG. 5B
  level of TNF-α in peritoneal fluid: significantly decreased
[1]; FIG. 5C
  level of IL-12p70 in peritoneal fluid: significantly increased
[1]; FIG. 5D
  level of IFN-γ in peritoneal fluid: significantly increased
splenocytes
  CLP-induced apoptosis by DNA fragmentation assay (TUNEL): significantly inhibited
Mouse neutrophils [2]; FIG. 6A
  level of IL-1β after LPS treatment: decreased
Mouse neutrophils [2]; FIG. 6B
  level of TNF-α after LPS treatment: decreased
Mouse neutrophils [2]; FIG. 6C
  level of IL-6 after LPS treatment: decreased
CLP mouse models; 1.5 mg/kg 2 hours after CLP, further three or four times at 12 hour intervals, FIG. 1B
  survival rate by injection frequency: significantly improved
CLP mouse models; 0.9 or 1.5 mg/kg injected, FIG. 1A
  survival rate of the mice compared to vehicle-injected control: significantly increased
CLP mouse models; various concentrations injected after CLP, FIG. 1A
  mortality of the mice after CLP: significant decrease in the mortality
[3]
  CLP-induced apoptosis of the thymocytes and splenocytes: significantly inhibited
caspase-3
  activation of CLP-induced caspase-3: significantly inhibited
[4]; 1 to 50 μm m-3M3FBS, FIG. 3B
  microbicidal action of the neutrophils: significantly increased in a direction proportional to the concentration
[5]
  decrease in number of colonies of bacteria in the abdominal cavity: 55%
Mouse neutrophils [6]; 1 to 50 μm m-3M3FBS, FIG. 3D
  production of H2O2 in the neutrophils: increased the production of H2O2 in the neutrophils in a direction proportional to the concentration
Lung of the CLP mouse; 24 hours after CLP, FIG. 2B
  W/D weight ratio of the lung: significantly decreased
Lung of the CLP mouse; hematoxylin and eosin staining 24 hours after surgery, FIG. 2A
  lung inflammation symptoms (congestion, extensive thrombotic lesions): significantly decreased

## COc1ccc2c(c1)CC[C@@H]1[C@@H]2CC[C@]2(C)[C@@H](NCCCCCCN3C(=O)C=CC3=O)CC[C@@H]12 [U-73122, reference compound]
CLP mouse models
  effect on the m-3M3FBS-induced survival rate: completely prevented the increase in the m-3M3FBS-induced survival rate
[4]; neutrophils preincubated with the inhibitor (10 μM), then m-3M3FBS added, FIG. 3C
  effect on m-3M3FBS-induced microbicidal action: completely prevented
Mouse neutrophils [6]; neutrophils preincubated with the inhibitor (10 μm), FIG. 3E
  effect on m-3M3FBS-induced production of H2O2: significantly decreased

## COc1ccc2c(c1)CC[C@@H]1[C@@H]2CC[C@]2(C)[C@@H](NCCCCCCN3C(=O)CCC3=O)CC[C@@H]12 [U-73343, reference compound]
CLP mouse models
  effect on the m-3M3FBS-induced survival rate: did not
